SMILES strings stand for the structures.

The target of one series is T1, HIV Integrase (Human immunodeficiency virus type 1 group M subtype B, UniProt P04585).
T1 construct: 0.26 ng of recombinant integrase was then incubated with the beads
The experiment in a line: In vitro activity against integrase, Method B (SPA assay). In kind it is biochemical. The conditions noted are these: read-out: Percent inhibition of HIV Integrase at 70 uM. Here is the method:
(§1) The in vitro activities, against integrase, of compounds of the present invention were measured by one of the following three methods.
(§2) In Method B, the in vitro activity against integrase was measured by binding, for each reaction, 5 pmole of biotin labeled substrate DNA to 100 ug of Streptavidin coated PVT SPA beads (Amersham Pharmacia Biotech). 0.26 ng of recombinant integrase was then incubated with the beads for 90 min at 37° C. Unbound enzyme was removed by washing the complex followed by addition of inhibitors and 0.1 fmol of P33 labeled target DNA. Reaction was stopped by adding EDTA to a final concentration of 10 mM. Samples were counted in TopCountNXT (Packard) and the CPM was used as a measure of integration. Reaction condition was as described in A. Engelman and R. Craigie, J. Virol. 69, 5908-5911 (1995). The sequences of substrate and target DNA were described in Nucleic Acid Research 22, 1121-1122 (1994).
As a reminder, the inhibition is the change of the read-out against control, counted positive when it falls. As to `O=C(O)/C(O)=C/C(=O)N(Cc1ccc(F)cc1)Cc1ccc(F)cc1` [Compound 11, 3-[Bis-(4-fluoro-benzyl)-carbamoyl]-2-hydroxy-acrylic acid], the inhibition at 70 µM turned out to be 97%.

For a further series, the target named is T2, HIV-1 integrase (Human immunodeficiency virus type 1 group M subtype B, UniProt P04585).
T2 construct: Purified recombinant HIV-1 integrase was incubated with immobilized precleaved substrate DNA
The experiment in a line: In vitro activity against integrase, Method A (immobilized precleaved substrate DNA, biotinylated target DNA, 96 well plate). In kind it is biochemical. The conditions noted are these: Assay Method A, read-out: Percent inhibition of HIV Integrase at 70 uM. Here is the method: as §1
In Method A, the in vitro activity against integrase was measured in a manner which was similar to previously disclosed methods (cf. Hazuda, D. J.; Felock, P.; Witmer, M.; Wolfe, A.; Stillmock, K.; Grobler, J. A.; Espeseth, A.; Gabryelski, L.; Schleif, W.; Blau, C.; Miller, M. D. Science, 2000, 287, 646) Purified recombinant HIV-1 integrase was incubated with immobilized precleaved substrate DNA in a 96 well plate for 20 min at 37° C. After the integration complex was formed, compounds at desired concentrations were added to the wells followed by a 10 min incubation at 37° C. Biotinyted Target DNA was then added and the reaction was carried out for an additional 1 hour at 37° C. Wells were then washed thoroughly to remove any free DNA and integration activity was measured by using a commercial kit to quantitate the amount of biotinyted target DNA integrated into the substrate.
On to `CN(Cc1ccccc1Cl)C(=O)/C=C(\O)C(=O)O` [Compound 10, 3-[(2-Chloro-benzyl)-methyl-carbamoyl]-2-hydroxy-acrylic acid], for which the inhibition at 70 µM turned out to be 79%.

For another series, the target named is T1, HIV Integrase. The experiment in a line: In vitro activity against integrase, Method C (electroluminescence, ECL assay). In kind it is biochemical. The conditions noted are these: read-out: Percent inhibition of HIV Integrase at 70 uM. Here is the method:
as §1, §2
Method C (Electroluminesence Assay):
The ECL assay of Method C is essentially the same as the SPA assay of Method B, except that 0.5 μg of Streptavidin coated magnetic beads and 0.5 pmol Ru labeled target DNA were used for each reaction instead of SPA beads and P33 labeled DNA. The samples were read in a M8 analyzer (IGEN International, Inc).
`O=C(CCCCCNC(=O)/C(O)=C/C(=O)N(CCCc1ccccc1Cl)Cc1ccc(F)cc1)NS(=O)(=O)c1ccccc1` [Compound 147, 2-Hydroxy-but-2-enedioic acid 1-[(6-benzenesulfonylamino-6-oxo-hexyl)-amide] 4-[[3-(2-chloro-phenyl)-propyl]-(4-fluoro-benzyl)-amide]]: the inhibition at 70 µM is 98%.

On to `CCCNC(=O)/C(O)=C/C(=O)N(Cc1ccc(F)cc1)Cc1ccc(F)cc1` [Compound 144, 2-Hydroxy-but-2-enedioic acid 4-[bis-(4-fluoro-benzyl)-amide] 1-propylamide], for which the inhibition at 70 µM was 83%.

Take `O=C(O)/C(O)=C/C(=O)N(CCOc1ccc(F)cc1)Cc1ccc(F)cc1` [Compound 47, 3-{(4-Fluoro-benzyl)-[2-(4-fluoro-phenoxy)-ethyl]-carbamoyl}-2-hydroxy-acrylic acid]: the inhibition at 70 µM amounted to 99%.

As to `CNC(=O)c1cccc(C(c2ccc(F)cc2)N(C)C(=O)/C=C(\O)C(=O)O)c1` (stereo not shown) [Compound 79, 3-{[(4-Fluoro-phenyl)-(3-methylcarbamoyl-phenyl)-methyl]-methyl-carbamoyl}-2-hydroxy-acrylic acid], the inhibition at 70 µM is 90%.

As to `O=C(O)/C(O)=C/C(=O)N(Cc1ccc(F)cc1)CC1CC1c1ccccc1` (stereo not shown) [Compound 52, 3-[(4-Fluoro-benzyl)-(2-phenyl-cyclopropylmethyl)-carbamoyl]-2-hydroxy-acrylic acid], the inhibition at 70 µM is 99%.

For the molecule `CN(CCCc1ccc(F)cc1)C(=O)/C=C(\O)C(=O)O` [Compound 46, 3-{[3-(4-Fluoro-phenyl)-propyl]-methyl-carbamoyl}-2-hydroxy-acrylic acid], the inhibition at 70 µM was 99%.

Regarding `O=C(O)/C(O)=C/C(=O)N(CCCc1ccccc1F)Cc1ccc(F)cc1` [Compound 51, 3-{(4-Fluoro-benzyl)-[3-(2-fluoro-phenyl)-propyl]-carbamoyl}-2-hydroxy-acrylic acid], the inhibition at 70 µM worked out at 100%.

With `O=C(O)/C(O)=C/C(=O)N(CCCc1ccccc1Cl)Cc1ccc(F)cc1` [Compound 87, 3-[[3-(2-Chloro-phenyl)-propyl]-(4-fluoro-benzyl)-carbamoyl]-2-hydroxy-acrylic acid], the inhibition at 70 µM was determined as 99%.

Turning to `O=C(O)/C(O)=C/C(=O)N(CCOc1ccccc1)Cc1ccc(F)cc1` [Compound 49, 3-[(4-Fluoro-benzyl)-(2-phenoxy-ethyl)-carbamoyl]-2-hydroxy-acrylic acid], the inhibition at 70 µM was 99%.

In the case of `CN(C(=O)/C=C(\O)C(=O)O)C(Cc1ccc(F)cc1)c1ccc(F)cc1` (stereo not shown) [Compound 78, 3-{[1,2-Bis-(4-fluoro-phenyl)-ethyl]-methyl-carbamoyl}-2-hydroxy-acrylic acid], the inhibition at 70 µM turned out to be 75%.

For the molecule `CC(c1ccc(F)cc1)N(C)C(=O)/C=C(\O)C(=O)O` (stereo not shown) [Compound 50, 3-{[1-(4-Fluoro-phenyl)-ethyl]-methyl-carbamoyl}-2-hydroxy-acrylic acid], the inhibition at 70 µM came out at 99%.

Test system in another series: not given
Assay: not given
Conditions: not given
As usually defined, the melting point is the temperature of the solid-liquid transition. For the molecule `O=C(O)/C(O)=C/C(=O)N(Cc1ccc(Cl)cc1)Cc1ccc(Cl)c(Cl)c1`, the melting point was 152 °C (dec.).

In the case of `CN(Cc1ccccc1Cl)C(=O)/C=C(\O)C(=O)O` [Compound 10, 3-[(2-Chloro-benzyl)-methyl-carbamoyl]-2-hydroxy-acrylic acid], the melting point fell in the range of 84 to 86 °C.

Take `O=C(O)/C(O)=C/C(=O)N(Cc1ccc(F)cc1)Cc1ccc(F)cc1` [Compound 11, 3-[Bis-(4-fluoro-benzyl)-carbamoyl]-2-hydroxy-acrylic acid]: the melting point was > 147 °C (dec.).

The record behind these values is patent US6803378B2, “HIV integrase inhibitors” (Bristol-Myers Squibb Company, priority 2000, dated 2004).
